Results on six compounds are retold here after the NIST ThermoML archive (doi:10.1016/j.jct.2015.07.034).

The conditions of this series: for Normal melting temperature: DTA.

± gives the expanded uncertainty stated by the source.

As for `CC[n+]1ccccc1.O=S(=O)([N-]S(=O)(=O)C(F)(F)F)C(F)(F)F` [1-ethylpyridinium bis[(trifluoromethyl)sulfonyl]imide], where the note is “Crystal 1”, the Normal melting temperature was 32.00 ± 2 °C. Also, the Triple point temperature (Crystal 2, DSC) is 294.15 ± 2 K.

On to `C[N+](C)(C)CCO.O=S(=O)([N-]S(=O)(=O)C(F)(F)F)C(F)(F)F` [choline bis(trifluoromethylsulfonyl)imide], for which, for the setting “Crystal 1”, the Normal melting temperature stood at 33.00 ± 2 °C. Besides, the Triple point temperature runs as follows: (Crystal 2, DSC) 275.15 ± 2 K; (Metastable crystal, DSC) 300.15 ± 2 K.

Turning to `CC[n+]1ccccc1.CS(=O)(=O)[O-]` [1-ethylpyridinium methanesulfonate], the Normal melting temperature (Crystal) worked out at 62.00 ± 2 °C.

As for `CCn1cc[n+](C)c1.O=S(=O)([O-])C(F)(F)F` [1-ethyl-3-methylimidazolium trifluoromethanesulfonate], for the setting “Crystal”, the Normal melting temperature is -14.00 ± 2 °C.

`CCn1cc[n+](C)c1.O=S(=O)([N-]S(=O)(=O)C(F)(F)C(F)(F)F)C(F)(F)C(F)(F)F`: the Normal melting temperature (Crystal) is 16.00 ± 2 °C. Where the note is “Glass, DSC”, the Glass transition temperature was -52.00 ± 2 °C.

Regarding `CC[n+]1ccccc1.O=S(=O)([O-])C(F)(F)F` [1-ethylpyridinium triflate], the Normal melting temperature (Crystal 1) was 32.00 ± 2 °C. For the same compound, the Triple point temperature (Crystal 2, DSC) is on record as 266.15 ± 2 K.
